{
  "source": "patent US20250195528A1",
  "about": "“DOSE REGIMEN OF VICASINABIN” (Hoffmann-La Roche Inc., priority 2022, published 2025)",
  "key": {"human CB2": {"target": "T1, human CB2 (Homo sapiens, UniProt P34972)", "T1 construct": "expressed in transfected cells; host or cells: CHO cells", "assay": "Radioligand binding to CB2, U698M cells expressing endogenous CB2"}, "human CB1": {"target": "human CB1 (Homo sapiens, UniProt P21554)", "sequence (P21554 whole entry)": "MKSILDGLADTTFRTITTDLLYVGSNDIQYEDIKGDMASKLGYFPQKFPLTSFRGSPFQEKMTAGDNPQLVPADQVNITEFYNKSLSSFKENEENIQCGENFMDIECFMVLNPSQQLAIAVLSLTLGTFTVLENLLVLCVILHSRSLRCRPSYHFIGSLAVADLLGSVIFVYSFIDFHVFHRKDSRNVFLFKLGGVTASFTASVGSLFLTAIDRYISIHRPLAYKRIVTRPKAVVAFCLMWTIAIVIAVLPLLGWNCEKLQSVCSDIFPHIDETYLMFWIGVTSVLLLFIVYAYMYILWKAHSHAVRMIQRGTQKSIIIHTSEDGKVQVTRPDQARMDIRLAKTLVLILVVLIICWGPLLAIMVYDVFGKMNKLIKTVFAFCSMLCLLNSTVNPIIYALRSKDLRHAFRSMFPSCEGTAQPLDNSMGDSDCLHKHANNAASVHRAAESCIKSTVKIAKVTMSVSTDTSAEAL", "assay": "Human CB1 cAMP assay", "type": "cell-based", "from_the_text": "Inhibition of cAMP accumulation in Chinese hamster ovary cells stably expressing recombinant CB2 was used to determine the functional potency of RO6868847 for different CB2 species and the selectivity over the closely related CB1."}, "[1]": {"system": "15-lipoxygenase, MAGL, diacylglycerol lipase, or FAAH enzymes", "assay": "Functional cellular assays, enzymes of the endocannabinoid pathway", "type": "cell-based", "conditions": "10 μM in mouse"}, "[2]": {"system": "LPS-induced G-CSF, IFNγ, IL1β and TNFα levels in whole blood", "assay": "In vitro LPS whole blood challenge assay", "type": "cell-based, human", "experimental": "In order to explore any putative anti-inflammatory pharmacodynamic effect mediated by the CB2 agonist RO6868847 in a potentially clinically relevant human sample, an ex vivo whole blood lipopolysacharid (LPS) challenge assay was performed. Sodium heparin whole blood samples from healthy participants (n=8) were incubated in vitro for 1 hour at 37° C. with eight increasing concentrations of RO6868847 (0-30 μM) and exposed to LPS (100 ng/ml). After 18 h at 37° C. supernatants were analyzed for alterations in a range of chemokines and cytokines using Luminex-bead based multiplex ELISAs.\nIn addition, this in vitro LPS whole blood challenge assay was also used in samples from diabetic (Type I and Type II) and matched healthy participants (table 6). In order to explore whether the exposure (0-30 μM)-response relationship of RO6868847 and the respective alterations in cytokine levels may be changed by any chronic inflammatory conditions in diabetes (DM) and/or in elderly healthy participants (HP), who are anticipated to be the study population of the Phase II proof of concept Study."}, "[3]": {"system": "STZ-induced Type 1 diabetes", "type": "in vivo", "conditions": "rat, 10 mg/kg", "experimental": "Pharmacological studies were performed in vitro and in vivo to investigate the potency, selectivity and activity of RO6868847. Pharmacological effects were determined in vivo in two different diabetic animal models which include the streptozotocin (STZ)-induced rat Type 1 diabetes and genetic Type 2 diabetes mouse models as well as in two acute models with acute inflammatory stimulus (LPS-injections) or laser injury (CNV). Additional in vitro pharmacology studies were performed to explore the pharmacological effect of RO6868847 and the suitability of the assays as biomarkers of target engagement and pharmacodynamic effect (PD) in human whole blood obtained from either healthy volunteers or diabetic patients.\nThe diversity of the tested models (including acute challenge versus disease-modifying models) and the absence of a recommended nonclinical DME/DR model with proven clinical translatability presents a challenge for the estimation of pharmacologically active exposure in humans.\nExposure was derived from satellite animals or extrapolated from previous PK or PD studies in the same species. […]"}, "[4]": {"set-up": "species or system human", "conditions": "in vivo", "from_the_text": "In Study BP40387, in Part 1, 11 participants (24.4%), Part 2, 1 participant (12.5%), Part 3, 16 participants (40%), Part 4, 12 participants (70.6%) and Part 5, 2 participants (11.1%), had reported at least 1 AE (see Table 22). One participant (5.9%) in Part 4 of the study was withdrawn by the investigator because of AEs. The AEs reported in more than 2 participants in Part 1 was medical device site erythema (6 participants in each PT) and vascular procedure complication (2 participants in each PT), in Part 3 was medical device site erythema (5 participants in each PT), constipation (3 participants in each PT) medical device site papule, medical device site pruritus, vascular procedure complication, headache (each 2 participants), and in Part 4 constipation (2 participants in each PT). […] The event was considered to be related to vicasinabin by the investigator and resolved without sequelae within one week after treatment discontinuation."}, "[5]": {"assay": "Stability of drug substance", "type": "physicochemical", "experimental": "For Phase I, film-coated tablets for oral administration containing 0.05, 0.75, 10, or 100 mg of RO6868847 drug substance were developed for clinical use. Three placebo film-coated tablets were formulated to match the active film-coated tablets in size and in appearance: one size to match the active 0.05 and 0.75 mg film-coated tablets and one size each to match the active 10 and 100 mg film-coated tablets."}, "[6]": {"assay": "Study BP40387 Part 3 (MAD) pharmacokinetics, once daily for 14 days;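 further: phase I trial BP40387 in healthy male and female volunteers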", "method": "Study BP40387 was a Phase I study that was conducted in healthy male and female participants, and included 5 parts. Part 1 (SAD) consisted of an adaptive, single-ascending-dose, investigator/participant-blind, randomized, placebo-controlled, parallel study to investigate the safety, tolerability, and pharmacokinetics of RO6868847. Part 2 (FE), was designed as an open-label, randomized, two-period crossover, single dose investigation of the effect of food on the pharmacokinetics of RO6868847. Part 3 (MAD), was an adaptive, multiple-ascending-dose, investigator/participant-blind, randomized, placebo-controlled, parallel study to investigate the safety, tolerability, and pharmacokinetics of RO6868847 administered once-daily for 14 days. Part 4 (DDI-CYP Induction), was a non-randomized, open-label, fixed-sequence, two-period study to explore RO6868847-mediated CYP induction at 300 mg administered once-daily for 14 days, using midazolam, repaglinide, and bupropion as probe substrates for CYP3A, CYP2C8, and CYP2B6, respectively. […] Overall, in Part 1 (SAD), a total of 33 healthy participants received single oral doses of RO6868847 ranging between 0.75 mg and 300 mg, and 12 participants received placebo under fasting conditions. In Part 2 (FE), 8 participants received a single oral dose of 100 mg RO6868847 once after an overnight fast of at least 10 hours and once within 30 minutes after starting a high-calorie, high-fat breakfast. In Part 3 (MAD), a total of 30 participants received multiple oral doses of 6 mg to 300 mg RO6868847 QD for 14 days, and 10 participants received placebo."}, "[7]": {"conditions": "diabetic patients and matched healthy participants"}},
  "note": "“Also recorded” adds a separate entry of the source. Like-named read-outs stand apart in the source and are kept apart here.",
  "data": [
    {"smiles": "Cn1nnnc1Cn1nnc2c(N3CC[C@H](O)C3)nc(C(C)(C)C)nc21", "note": "[RO6868847, (3S)-1-[5-tert-butyl-3-[(1-methyltetrazol-5-yl)methyl]triazolo[4,5-d]pyrimidin-7-yl]pyrrolidin-3-ol]", "values": [
      {"measurement": "IC50", "setting": "human CB2", "value": "0.0922 ± 0.0131", "unit": "µM"},
      {"measurement": "Ki", "setting": "human CB2", "value": 0.0628, "unit": "µM"},
      {"measurement": "EC50", "setting": "human CB1", "value": "> 10", "unit": "µM"},
      {"measurement": "IC50", "setting": "human CB1", "value": "> 10", "unit": "µM"},
      {"measurement": "CB1/CB2 Ratio (functional selectivity)", "setting": "human CB1; CB1 EC50 over CB2 EC50", "value": ">3600", "unit": "fold"},
      {"measurement": "receptor activation or inhibition", "setting": "human CB1; highest concentration of 10 μM", "value": "no receptor activation or inhibition"},
      {"measurement": "activity at endocannabinoid pathway enzymes", "setting": "[1]", "value": "no activity"},
      {"measurement": "IC50", "setting": "[2]; Homo sapiens, DM, 3/9, read-out: IC50 (IL-1β)/μM", "value": "29.4 ± 24.1", "unit": "µM"},
      {"measurement": "IC50", "setting": "[2]; Homo sapiens, DM, 7/9, read-out: IC50 (IFNγ)/μM", "value": "6.91 ± 2.29", "unit": "µM"},
      {"measurement": "IC50", "setting": "[2]; Homo sapiens, HV, 3/8, read-out: IC50 (TNFα)/μM", "value": "7 ± 4.61", "unit": "µM"},
      {"measurement": "IC50", "setting": "[2]; Homo sapiens, HV, 5/8, read-out: IC50 (IL-1β)/μM", "value": "5.02 ± 4.58", "unit": "µM"},
      {"measurement": "IC50", "setting": "[2]; Homo sapiens, HV, 6/8, read-out: IC50 (IFNγ)/μM", "value": "10.9 ± 8.9", "unit": "µM"},
      {"measurement": "IC50", "setting": "[2]; Homo sapiens, Matched HVs, 4/8, read-out: IC50 (IFNγ)/μM", "value": "12.4 ± 4.19", "unit": "µM"},
      {"measurement": "EC50", "setting": "[2]; Homo sapiens, HV, curves fitted 5/8", "value": "7.97 ± 6.71", "unit": "µM"},
      {"measurement": "G-CSF and TNFα levels post LPS", "setting": "[2]; [7]", "value": "an overall drug response in the explored exposure range could not be concluded"},
      {"measurement": "IFNγ level post LPS", "setting": "[2]; [7]", "value": "dose-dependent attenuation of IFNγ"},
      {"measurement": "chemokine and cytokine levels post LPS stimulation", "setting": "[2]; healthy participants n=8, 0-30 μM, LPS 100 ng/ml, 18 h", "value": "decrease of IFNγ, IL1β, TNFα and elevation of G-CSF"},
      {"measurement": "effect on disease marker", "setting": "[3]", "value": "full effect"},
      {"measurement": "unbound AUC0-24 [S-epimer], upper bound of pharmacologically active exposure", "setting": "[3]; in vivo", "value": 546, "unit": "ng·hr/mL"},
      {"measurement": "participants withdrawn because of AEs", "setting": "[4]; both, human, 14 days", "value": 5.9, "unit": "%"},
      {"measurement": "clinical laboratory parameters, ECGs, vital signs, C-SSRS, VAS, TBNK assay, neurological examinations", "setting": "[4]", "value": "No specific concerns"},
      {"measurement": "stability to temperature stress", "setting": "[5]", "value": "fairly stable"},
      {"measurement": "stability to light", "setting": "[5]; solid state and solution", "value": "stable to light"},
      {"measurement": "time dependence of pharmacokinetics", "setting": "[6]; in vivo", "value": "absence of relevant PK time dependencies; also recorded: no evidence of time-dependent pharmacokinetics"},
      {"measurement": "time to steady state", "setting": "[6]; once-daily dosing", "value": "approximately after the second day of dosing; also recorded: approximately after the second day of treatment"},
      {"measurement": "accumulation of Cmax and AUCtau", "setting": "[6]; once-daily dosing, independent of dose", "value": "only minor accumulation"}
    ]}
  ]
}
